4 compounds from ChEMBL document CHEMBL5370572, “Coscinoderines A-J: Trisubstituted Pyridinium-Containing Norterpenoids Isolated from Coscinoderma bakusi, a Tropical Marine Sponge” (J Nat Prod, 2023) can be followed below.

Activity calls are given as the source filed them. The calls are words filed in the database; no cut-off is given here.

One series concerns HEK293. The series is described as follows: Cytotoxicity against HEK293 cells assessed as reduction in cell proliferation at 1.25 to 80 uM measured after 48 hrs by MTS assay. The following applies: human, hek293, 48 h, dose 1.25-80 µM. Type of series: toxicity, cell-based. A general note: Tetrazolium dyes change colour on reduction, which living cells bring about.
The test system of series [1] is Micrococcus luteus. In words: Antibacterial activity against Micrococcus luteus KCTC 1915 assessed as inhibition of bacterial growth at 75 uM. It counts as functional, organism-based.
The test system of series [2] is Micrococcus luteus. In words: Antibacterial activity against Micrococcus luteus KCTC 1915 assessed as inhibition of bacterial growth at 72.6 uM. Type of series: functional, organism-based.
A further series has as its system Staphylococcus aureus. The series is described as follows: Antibacterial activity against Staphylococcus aureus ATCC 25923 assessed as inhibition of bacterial growth at 45.4 uM. It counts as functional, organism-based.

Take `CC1=C(CC/C(C)=C/CCCc2ccc(CC(=O)O)c[n+]2CCS(=O)(=O)O)C(C)(C)CCC1`: in the series on HEK293, the Activity entry was “Non-Toxic”. Turning to `C=C(C)[C@@]1(CC/C(C)=C/CCCc2ccc(CC(=O)O)c[n+]2CC(C)C)CCC[C@H]1C`, the inhibition result in the series with Micrococcus luteus [1] is “Active”. Moreover, in the series with HEK293, the Activity result is reported as “Non-Toxic”. Consider `C=C(C)[C@@]1(CC/C(C)=C/CCCc2ccc(CC(=O)O)c[n+]2C[C@@H](C)CC)CCC[C@H]1C`, for which, in the series with HEK293, the Activity result is recorded as “Non-Toxic”. Also, the inhibition result in the series on Micrococcus luteus [2] and with Staphylococcus aureus was “Active” each time. On to `CC(C)=CCC/C(C)=C/CC/C(C)=C/CCCc1ccc(CC(=O)O)c[n+]1CC(=O)O`, for which, in the series on HEK293, the Activity entry is “Non-Toxic”.
